Structures are written as SMILES. pIC50: −log10 of the molar value.

Consider 31 compounds from patent US10683269B2 (MISSION THERAPEUTICS LIMITED, priority 2016, dated 2020).

This assay deals with T1, USP7 (Homo sapiens, UniProt Q93009).
T1 construct: The USP7 construct was PCR amplified and cloned into a pFLAG-CMV-6a vector (Sigma-Aldrich) with an N-terminal FLAG tag; made in house; host or cells: HEK293T
T1 sequence (Q93009 whole entry): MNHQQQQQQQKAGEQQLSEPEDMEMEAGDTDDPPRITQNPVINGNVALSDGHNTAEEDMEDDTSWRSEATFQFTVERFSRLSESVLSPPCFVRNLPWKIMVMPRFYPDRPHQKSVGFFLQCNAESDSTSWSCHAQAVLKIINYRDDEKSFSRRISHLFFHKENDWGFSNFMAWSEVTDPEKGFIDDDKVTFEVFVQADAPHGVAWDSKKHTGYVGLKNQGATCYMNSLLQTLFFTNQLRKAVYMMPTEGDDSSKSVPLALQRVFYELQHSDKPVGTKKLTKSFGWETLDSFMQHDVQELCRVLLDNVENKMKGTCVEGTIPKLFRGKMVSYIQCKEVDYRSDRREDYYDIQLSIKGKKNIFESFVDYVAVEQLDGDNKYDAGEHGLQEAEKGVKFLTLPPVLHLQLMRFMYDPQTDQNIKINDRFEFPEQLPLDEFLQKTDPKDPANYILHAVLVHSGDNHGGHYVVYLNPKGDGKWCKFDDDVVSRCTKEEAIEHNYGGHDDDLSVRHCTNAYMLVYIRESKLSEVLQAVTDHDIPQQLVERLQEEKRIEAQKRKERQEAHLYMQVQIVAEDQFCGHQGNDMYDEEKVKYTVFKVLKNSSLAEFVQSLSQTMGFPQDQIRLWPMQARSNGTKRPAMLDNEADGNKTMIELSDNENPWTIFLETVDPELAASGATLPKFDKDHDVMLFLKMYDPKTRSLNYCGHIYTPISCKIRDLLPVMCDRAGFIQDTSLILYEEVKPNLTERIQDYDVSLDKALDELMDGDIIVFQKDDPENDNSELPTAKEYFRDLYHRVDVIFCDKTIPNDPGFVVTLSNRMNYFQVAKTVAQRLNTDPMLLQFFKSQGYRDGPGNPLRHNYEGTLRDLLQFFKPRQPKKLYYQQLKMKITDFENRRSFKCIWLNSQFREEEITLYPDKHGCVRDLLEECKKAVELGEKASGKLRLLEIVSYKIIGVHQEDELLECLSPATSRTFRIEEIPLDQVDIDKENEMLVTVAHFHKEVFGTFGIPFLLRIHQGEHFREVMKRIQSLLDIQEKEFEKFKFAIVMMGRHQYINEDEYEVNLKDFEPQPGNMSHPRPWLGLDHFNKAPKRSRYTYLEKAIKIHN
The assay is described as follows: USP7 biochemical IC50 assay (fluorescence polarisation, TAMRA labelled peptide linked to ubiquitin via an iso-peptide bond). The note with it: 30 min pre-incubation of enzyme and compound, read after 2 hr incubation at room temperature, read-out: IC50 range. The method, then: In Vitro USP7 Inhibition Assay
Expression and Purification of USP7
The USP7 construct was PCR amplified and cloned into a pFLAG-CMV-6a vector (Sigma-Aldrich) with an N-terminal FLAG tag. HEK293T cells were transfected with FLAG-USP7 using TransIT-LT1 transfection reagent (Mirus) according to the manufacturer's instructions. Cells were harvested 40 hours after transfection. […] The resin was washed two times with low salt buffer plus protease inhibitors (complete mini, Roche) and phosphatase inhibitors (PhosSTOP mini, Roche) and one time with high salt buffer (20 mM Tris, pH 7.5, 500 mM NaCl, 0.5 mM EDTA, 5 mM beta-mercaptoethanol, protease inhibitors (complete mini, Roche) and phosphatase inhibitors (PhosSTOP mini, Roche). To elute the bound USP7, elution buffer (10 mM Tris, pH 7.5, 150 mM NaCl, 0.5 mM EDTA, 10% glycerol, 0.5% NP40, 5 mM beta-mercaptoethanol, 0.15 mg/ml 3×FLAG peptide (Sigma-Aldrich)) was added to the resin and incubated at 4° C. for 2.5 hours rotating. The resin was centrifuged at 4000 rpm for 30 seconds, and the supernatant containing purified FLAG-USP7 was removed and stored at −80° C.
USP7 Biochemical IC50 Assay
A typical 8-point dilution series would be 100, 30, 10, 3, 1, 0.3, 0.1, 0.03 μM final. […] Either 1 μl of 50% DMSO or diluted compound was added to the plate. USP7 was diluted in reaction buffer (20 mM Tris, pH 7.5, 100 mM NaCl, 0.05% Tween 20, 0.5 mg/ml BSA, 5 mM—beta mercaptoethanol) to the equivalent of 0.0025 μl/well and 10 μl of diluted USP7 was added to the compound. Enzyme and compound were incubated for 30 min at room temp. Reactions were initiated by the addition of 50 nM of TAMRA labelled peptide linked to ubiquitin via an iso-peptide bond as fluorescence polarisation substrate. Reactions were read immediately after addition of substrate and following a 2 hr incubation at room temperature. Readings were performed on a Pherastar Plus (BMG Labtech). λ Excitation 540 nm; λ Emission 590 nm.
For orientation: Fluorescence polarisation rises when a labelled molecule tumbles more slowly, as on binding a larger partner.
One may read the pIC50 as the IC50 on a negative log10 scale, so that one unit is a factor of ten. For `CN1CCC(c2cccc3c2CN(C#N)C3)CC1` [Example 14, 4-(1-methylpiperidin-4-yl)isoindoline-2-carbonitrile], the pIC50 is 4.00 to 4.52.

As to `CN(C)C(=O)c1cc2c(c(-c3ccc(C#N)cc3)c1)CN(C#N)C2` [Example 232, 2-cyano-7-(4-cyanophenyl)-N,N-dimethylisoindoline-5-carboxamide], the pIC50 was 5.00 to 6.00. As for `CC(=O)NCc1cc2c(c(-c3ccc(C#N)cc3C#N)c1)CN(C#N)C2` [Example 226, N-((2-cyano-7-(2,4-dicyanophenyl)isoindolin-5-yl)methyl)acetamide], the negative-log IC50 (pIC50) was 5.00 to 6.00. Regarding `N#CN1Cc2cccc(-c3ccccc3S(=O)(=O)N3CCC3)c2C1` [Example 178, 4-(2-(azetidin-1-ylsulfonyl)phenyl)isoindoline-2-carbonitrile], the pIC50 is 5.00 to 6.00.

Take `COc1ccc(-c2nc(NCCO)nc3c2CN(C#N)C3)cc1` [Example 211, 2-((2-hydroxyethyl)amino)-4-(4-methoxyphenyl)-5,7-dihydro-6H-pyrrolo[3,4-d]pyrimidine-6-carbonitrile]: the pIC50 was more than 6.00. On to `Cc1[nH]ncc1-c1nc2c(c(N3CCc4ccccc4C3)n1)CN(C#N)C2` [Example 139, 4-(3,4-dihydroisoquinolin-2(1H)-yl)-2-(5-methyl-1H-pyrazol-4-yl)-5,7-dihydro-6H-pyrrolo[3,4-d]pyrimidine-6-carbonitrile], for which the pIC50 is 5.00 to 6.00.

Turning to `N#Cc1ccc(-c2cccc3c2CN(C#N)C3)c(C(F)(F)F)c1` [Example 177, 4-(4-cyano-2-(trifluoromethyl)phenyl)isoindoline-2-carbonitrile], the pIC50 is 5.00 to 6.00.

Regarding `Cn1nccc1CNc1cc2c(c(-c3ccc(C#N)cc3)c1)CN(C#N)C2` [Example 276, 4-(4-cyanophenyl)-6-(((1-methyl-1H-pyrazol-5-yl)methyl)amino)isoindoline-2-carbonitrile], the pIC50 is 5.00 to 6.00. For `N#CN1Cc2nc(-c3ccccc3)nc(N3CCCC3C(N)=O)c2C1` (stereo not shown) [Example 131, 1-(6-cyano-2-phenyl-6,7-dihydro-5H-pyrrolo[3,4-d]pyrimidin-4-yl)pyrrolidine-2-carboxamide], the pIC50 is 4.52 to 5.00. The figure for `CS(=O)(=O)CCNc1nc2c(c(-c3ccccc3)n1)CN(C#N)C2` [Example 188, 2-((2-(methylsulfonyl)ethyl)amino)-4-phenyl-5,7-dihydro-6H-pyrrolo[3,4-d]pyrimidine-6-carbonitrile] is 5.00 to 6.00; for `N#CN1Cc2nc(Cl)nc(-c3ccccc3F)c2C1` [Example 150, 2-chloro-4-(2-fluorophenyl)-5,7-dihydro-6H-pyrrolo[3,4-d]pyrimidine-6-carbonitrile] it is 4.00 to 4.52; for `CN1CCCC(C(=O)N(C)c2cc3c(c(-c4ccccc4)c2)CN(C#N)C3)C1` (stereo not shown) [Example 59, N-(2-cyano-7-phenylisoindolin-5-yl)-N,1-dimethylpiperidine-3-carboxamide] it is 5.00 to 6.00. Then `CC(=O)NCc1cc2c(c(-c3ccccc3C#N)c1)CN(C#N)C2` [Example 225, N-((2-cyano-7-(2-cyanophenyl)isoindolin-5-yl)methyl)acetamide], with 5.00 to 6.00. For `CN1CCOC(CN(C)c2nc3c(c(N4CCc5ccccc5C4)n2)CN(C#N)C3)C1` (stereo not shown) [Example 203, 4-(3,4-dihydroisoquinolin-2(1H)-yl)-2-(methyl((4-methylmorpholin-2-yl)methyl)amino)-5,7-dihydro-6H-pyrrolo[3,4-d]pyrimidine-6-carbonitrile], the pIC50 is 5.00 to 6.00. Consider `CNC(=O)c1cc2c(c(-c3ccc(F)cc3)c1)CN(C#N)C2` [Example 240, 2-cyano-7-(4-fluorophenyl)-N-methylisoindoline-5-carboxamide], for which the pIC50 is more than 6.00. Then `N#Cc1cc(F)ccc1-c1cccc2c1CN(C#N)C2` [Example 167, 4-(2-cyano-4-fluorophenyl)isoindoline-2-carbonitrile], with 5.00 to 6.00. Regarding `N#CN1Cc2cccc(N3C(=O)CCCC3=O)c2C1` [Example 268, 4-(2,6-dioxopiperidin-1-yl)isoindoline-2-carbonitrile], the pIC50 is 4.52 to 5.00.

For `Cc1ccccc1OC1CCN(c2ncnc3c2CN(C#N)C3)CC1` [Example 184, 4-(4-(o-tolyloxy)piperidin-1-yl)-5,7-dihydro-6H-pyrrolo[3,4-d]pyrimidine-6-carbonitrile], the pIC50 was 5.00 to 6.00.

For the compound `CC(=O)Nc1ccc2c(c1-c1ccccc1)CN(C#N)C2` [Example 96, N-(2-cyano-4-phenylisoindolin-5-yl)acetamide], the pIC50 was 5.00 to 6.00. In the case of `CC(=O)c1ccccc1-c1cccc2c1CN(C#N)C2` [Example 159, 4-(2-acetylphenyl)isoindoline-2-carbonitrile], the pIC50 is 5.00 to 6.00. For the compound `N#Cc1ccc(-c2cc(C(=O)N3CCS(=O)(=O)CC3)cc3c2CN(C#N)C3)cc1` [Example 236, 4-(4-cyanophenyl)-6-(1,1-dioxidothiomorpholine-4-carbonyl)isoindoline-2-carbonitrile], the pIC50 is 5.00 to 6.00. Consider `N#CN1Cc2ncnc(N3CCC(Oc4ccccc4C(N)=O)CC3)c2C1` [Example 103, 2-((1-(6-cyano-6,7-dihydro-5H-pyrrolo[3,4-d]pyrimidin-4-yl)piperidin-4-yl)oxy)benzamide], for which the pIC50 was 4.52 to 5.00. As for `N#CN1Cc2cccc(-c3ccccc3C(=O)NCCN)c2C1` [Example 77, N-(2-aminoethyl)-2-(2-cyanoisoindolin-4-yl)benzamide], the negative-log IC50 (pIC50) was 5.00 to 6.00. On to `N#CN1Cc2nc(NC3CCOCC3)nc(-c3ccccc3)c2C1` [Example 189, 4-phenyl-2-((tetrahydro-2H-pyran-4-yl)amino)-5,7-dihydro-6H-pyrrolo[3,4-d]pyrimidine-6-carbonitrile], for which the negative-log IC50 (pIC50) was 4.52 to 5.00.

With `N#CN1Cc2nc(N[C@H]3CC[C@H](O)CC3)nc(N3CCc4ccccc4C3)c2C1` [Example 199], the pIC50 is 5.00 to 6.00. Then `N#CN1Cc2cccc(NC(=O)c3csc(-c4ccccc4)n3)c2C1` [Example 84, N-(2-cyanoisoindolin-4-yl)-2-phenylthiazole-4-carboxamide], with 4.52 to 5.00; and `COc1cc2cc(C(=O)Nc3cccc4c3CN(C#N)C4)[nH]c2cn1` [Example 85, N-(2-cyanoisoindolin-4-yl)-5-methoxy-1H-pyrrolo[2,3-c]pyridine-2-carboxamide], with 5.00 to 6.00. The figure for `CN1CCC(C(=O)Nc2cc3c(c(-c4ccccc4)c2)CN(C#N)C3)CC1` [Example 48, N-(2-cyano-7-phenylisoindolin-5-yl)-1-methylpiperidine-4-carboxamide] is more than 6.00; for `Cn1nccc1CNc1cc(-c2ccc(F)cc2)c2c(n1)CN(C#N)C2` [Example 248, 4-(4-fluorophenyl)-2-(((1-methyl-1H-pyrazol-5-yl)methyl)amino)-5,7-dihydro-6H-pyrrolo[3,4-b]pyridine-6-carbonitrile] it is more than 6.00; for `Cn1cc(-c2cc3c(c(-c4ccccc4)c2)CN(C#N)C3)ccc1=O` [Example 263, 6-(1-methyl-6-oxo-1,6-dihydropyridin-3-yl)-4-phenylisoindoline-2-carbonitrile] it is 5.00 to 6.00. Regarding `N#CN1Cc2nc(NCCc3ccccn3)nc(-c3ccccc3)c2C1` [Example 114, 4-phenyl-2-((2-(pyridin-2-yl)ethyl)amino)-5,7-dihydro-6H-pyrrolo[3,4-d]pyrimidine-6-carbonitrile], the negative logarithm of the IC50 (pIC50) is 5.00 to 6.00.
